Measured values from the supplement of paper PMC10307832.

Key:
Assay in all cases: relative viability (nuclei count vs DMSO), 5 days (fraction); higher = more cells survive
Dactolisib + Crizotinib = compound: Cn1c(=O)n(-c2ccc(C(C)(C)C#N)cc2)c2c3cc(-c4cnc5ccccc5c4)ccc3ncc21 [Dactolisib] + C[C@@H](Oc1cc(-c2cnn(C3CCNCC3)c2)cnc1N)c1c(Cl)ccc(F)c1Cl [Crizotinib] (partner 1 µM)
Method in brief: (§1)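 Medians of duplicate plates are given as relative viability. That measure is the nuclei count in treated wells divided by the count in vehicle wells. Counts were taken on 4× images of lung cancer cell lines in 1536-well plates, 5 days after pin-tool dosing the day after seeding with one drug alone or a fixed anchor-drug dose plus five library-drug doses (not always all listed) in √10 steps.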

Dactolisib + Pemetrexed = compound: Cn1c(=O)n(-c2ccc(C(C)(C)C#N)cc2)c2c3cc(-c4cnc5ccccc5c4)ccc3ncc21 [Dactolisib] + Nc1nc2[nH]cc(CCc3ccc(C(=O)N[C@@H](CCC(=O)O)C(=O)O)cc3)c2c(=O)[nH]1 [Pemetrexed] (partner 0.2 µM)
Method in brief: as §1

AZ505 + Tozasertib = compound: C1CCC(CC1)N(CCNCCC2=C3C(=C(C=C2)O)NC(=O)CO3)C(=O)CCNCCC4=CC(=C(C=C4)Cl)Cl [AZ505] + Cc1cc(Nc2cc(N3CCN(C)CC3)nc(Sc3ccc(NC(=O)C4CC4)cc3)n2)n[nH]1 [Tozasertib] (partner 0.1 µM)
Method in brief: as §1

Dactolisib + Navitoclax = compound: Cn1c(=O)n(-c2ccc(C(C)(C)C#N)cc2)c2c3cc(-c4cnc5ccccc5c4)ccc3ncc21 [Dactolisib] + CC1(C)CCC(c2ccc(Cl)cc2)=C(CN2CCN(c3ccc(C(=O)NS(=O)(=O)c4ccc(N[C@H](CCN5CCOCC5)CSc5ccccc5)c(S(=O)(=O)C(F)(F)F)c4)cc3)CC2)C1 [Navitoclax] (partner 0.5 µM)
Method in brief: as §1

Cell Line | relative viability (Dactolisib + Crizotinib; first compound 0.002 µM) | relative viability (Dactolisib + Crizotinib; first compound 0.006325 µM) | relative viability (Dactolisib + Crizotinib; first compound 0.02 µM) | relative viability (Dactolisib + Crizotinib; first compound 0.06325 µM) | relative viability (Dactolisib + Crizotinib; first compound 0.2 µM) | relative viability (Dactolisib + Pemetrexed; first compound 0.002 µM) | relative viability (Dactolisib + Pemetrexed; first compound 0.006325 µM) | relative viability (Dactolisib + Pemetrexed; first compound 0.02 µM) | relative viability (Dactolisib + Pemetrexed; first compound 0.06325 µM) | relative viability (Dactolisib + Pemetrexed; first compound 0.2 µM) | relative viability (AZ505 + Tozasertib; first compound 0.08 µM) | relative viability (AZ505 + Tozasertib; first compound 0.253 µM) | relative viability (AZ505 + Tozasertib; first compound 0.8 µM) | relative viability (AZ505 + Tozasertib; first compound 2.53 µM) | relative viability (AZ505 + Tozasertib; first compound 8 µM) | relative viability (Dactolisib + Navitoclax; first compound 0.002 µM) | relative viability (Dactolisib + Navitoclax; first compound 0.006325 µM) | relative viability (Dactolisib + Navitoclax; first compound 0.02 µM) | relative viability (Dactolisib + Navitoclax; first compound 0.06325 µM) | relative viability (Dactolisib + Navitoclax; first compound 0.2 µM)
NCI-H1975 | 1.18 | 0.948 | 0.7 | 0.358 | 0.34 | 0.299 | 0.32 | 0.297 | 0.244 | 0.181 | 0.649 | 0.733 | 0.731 | 0.638 | 0.741 | 1.14 | 1.01 | 0.689 | 0.55 | 0.362
NCI-H1993 | 0.84 | 0.761 | 0.66 | 0.594 | 0.585 | 0.554 | 0.496 | 0.49 | 0.345 | 0.421 | 0.611 | 0.529 | 0.58 | 0.539 | 0.529 | 0.827 | 0.846 | 0.625 | 0.537 | 0.626
RERF-LC-KJ | 1.01 | 0.86 | 0.84 | 0.668 | 0.582 | 0.488 | 0.479 | 0.46 | 0.433 | 0.434 | 0.432 | 0.432 | 0.467 | 0.459 | 0.388 | 0.875 | 1.03 | 0.697 | 0.455 | 0.609
NCI-H23 | 0.455 | 0.408 | 0.614 | 0.357 | 0.257 | 0.635 | 0.635 | 0.563 | 0.289 | 0.296 | 0.388 | – | 0.392 | 0.402 | 0.327 | 0.934 | 0.842 | 0.829 | 0.412 | 0.346
HCC-366 | 0.409 | 0.574 | 0.531 | 0.302 | 0.168 | 0.104 | 0.183 | 0.229 | 0.173 | 0.147 | 0.128 | 0.113 | 0.152 | 0.132 | 0.0879 | 1 | 0.961 | 1.07 | 0.67 | 0.498
EMC-BAC-2 | 0.834 | 0.718 | 0.708 | 0.565 | 0.34 | 0.424 | 0.39 | 0.448 | 0.456 | 0.416 | 0.268 | 0.323 | 0.299 | 0.274 | 0.275 | 1.19 | 1.13 | 1.11 | 0.867 | 0.642
NCI-H2405 | 0.758 | 0.867 | 0.849 | 0.541 | 0.38 | 1.1 | 1.03 | 0.972 | 0.641 | 0.378 | 0.508 | 0.594 | 0.45 | 0.516 | 0.503 | 0.727 | 0.935 | 0.831 | 0.391 | 0.25
NCI-H1944 | 1.18 | 1.06 | 1.03 | 0.46 | 0.392 | 0.461 | 0.564 | 0.585 | 0.286 | 0.244 | 0.248 | 0.249 | 0.24 | 0.236 | 0.236 | 1.06 | 0.986 | 0.933 | 0.526 | 0.36
